Reference: patent US20220041647A1, “ESTRA-1,3,5(10)-TRIENE COMPOUNDS CONDENSED IN POSITION 16(17) WITH A PYRAZOLE RING AS INHIBITORS OF 17-HSD1” (FORENDO PHARMA LTD, priority 2018, published 2022)

Experiments:
[1] = biological target: T1, recombinant human 17β-HSD1 (Homo sapiens, UniProt P14061); assay: Inhibition of recombinant human 17β-HSD1 (estrone to estradiol conversion, HPLC/radioactivity); assay type: biochemical; details: compound 100 nM; 30 nM estrone, 1 mM NADPH, 30 min RT
T1 construct: made in house; host or cells: Sd9 (Sf9) insect cells, baculovirus (Bac to Bac Expression System)
T1 sequence (P14061 1-328): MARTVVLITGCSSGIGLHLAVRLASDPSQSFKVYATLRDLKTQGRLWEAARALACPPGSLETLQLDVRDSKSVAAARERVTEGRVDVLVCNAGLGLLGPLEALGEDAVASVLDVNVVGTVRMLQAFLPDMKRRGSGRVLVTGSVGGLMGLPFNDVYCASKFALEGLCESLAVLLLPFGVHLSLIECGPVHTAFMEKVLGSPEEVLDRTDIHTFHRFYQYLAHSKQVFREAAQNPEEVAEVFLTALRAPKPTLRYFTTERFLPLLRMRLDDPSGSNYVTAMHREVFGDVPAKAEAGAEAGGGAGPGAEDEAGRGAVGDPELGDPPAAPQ
Method in brief: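 Microsomal human 17β-HSD1 from Sf9 baculovirus (1 μg/ml) was incubated 30 min at RT in 20 mM KH2PO4 pH 7.4 with 30 nM ^3H-estrone, 1 mM NADPH and inhibitor at 1 μM or 0.1 μM (1% DMSO). Estrone and estradiol were separated by HPLC with radioactivity detection. % inhibition = 100 − % conversion relative to uninhibited control.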

[2] = tested on: HSD1 enzyme that is expressed in rabbit placenta tissue; assay: Inhibition of E1 to E2 conversion in rabbit placenta tissue homogenate; assay type: biochemical; details: compound 100 nM, 30 nM estrone, 1 mM β-NADPH, 30 min
Method in brief: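 Rabbit placenta homogenate (20 mM KH2PO4, 1 mM EDTA, pH 7.4) incubated 30 min with 1 mM β-NADPH, 30 nM estrone plus 5 nM [3H]-estrone tracer, and inhibitor at 1 μM or 0.1 μM (1% DMSO). Stopped with TCA; estrone and estradiol resolved by HPLC with scintillation counting; % inhibition = 100 − % conversion relative to uninhibited control.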

[3] = Metabolic stability assay, human hepatocyte incubations; assay type: in vitro ADME; details: compound 1 μM, human hepatocytes, 0-60 min at 37° C.; read-out: Human hepatocytes MetStab T½ min
Procedure: Compound stock solutions of the invention were prepared in […]. Final concentration of DMSO was adjusted to 1% in all samples. The in vitro metabolic stability of the compounds of the invention was determined for exemplified compounds using human hepatocyte incubations; study compounds at concentration of 1 μM were incubated 0, 10, 20, 40 and 60 min at 37° C. Samples were collected at all time points and compounds were detected by LC-MS/MS analysis. The percent compound remaining is calculated by comparing the peak area of the parent compound at each time point to time zero. In vitro metabolic stability was determined as half life (T1/2), which was determined by regression analysis of the percent parent disappearance vs. time curve.

Row | SMILES | inhibition at 0.1 µM [1] [%] | Rabbit placenta inhibition % @100 nM [2] [%] | half-life at 1 μM [3] [h]
1 | C[C@]12CCC3c4ccc(F)cc4CCC3C1[C@H](CCC(=O)Nc1ccc(N3CCOCC3)cn1)c1c[nH]nc12 (stereo partly drawn) [Compound 96, 3-((8aS,12S)-4-fluoro-8a-methyl-1,2,6b,7,8,8a,10,12,12a,12b-decahydronaphtho[2′,1′:4,5]indeno[1,2-c]pyrazol-12-yl)-N-(5-morpholinopyridin-2-yl)propanamide] | 74 | 42 | 1.25
2 | C[C@]12CCC3c4ccc(F)cc4CCC3C1[C@H](CCC(=O)Nc1ccc(F)cn1)c1c[nH]nc12 (stereo partly drawn) [Compound 99, 3-((8aS,12S)-4-fluoro-8a-methyl-1,2,6b,7,8,8a,10,12,12a,12b-decahydronaphtho[2′,1′:4,5]indeno[1,2-c]pyrazol-12-yl)-N-(5-fluoropyridin-2-yl)propanamide] | 84 | 10 | 1.62
3 | C[C@]12CCC3c4ccc(Cl)cc4CCC3C1[C@H](CCC(=O)Nc1cc3c([nH]c1=O)CCCC3)c1c[nH]nc12 (stereo partly drawn) [Compound 123, 3-((8aS,12S)-4-chloro-8a-methyl-1,2,6b,7,8,8a,10,12,12a,12b-decahydronaphtho[2′,1′:4,5]indeno[1,2-c]pyrazol-12-yl)-N-(2-oxo-1,2,5,6,7,8-hexahydroquinolin-3-yl) propanamide] | 87 | 17 | 2.58
4 | CN(C)C(=O)c1ccc(NC(=O)CC[C@@H]2c3c[nH]nc3[C@@]3(C)CCC4c5ccc(Cl)cc5CCC4C23)nc1 (stereo partly drawn) [Compound 126, 6-(3-((8aS,12S)-4-chloro-8a-methyl-1,2,6b,7,8,8a,10,12,12a,12b-decahydronaphtho[2′,1′:4,5]indeno[1,2-c]pyrazol-12-yl)propanamido)-N,N-dimethylnicotinamide] | 89 | 37 | 2.45
5 | CC(C)c1ccc(NC(=O)CC[C@@H]2c3c[nH]nc3[C@@]3(C)CCC4c5ccccc5CCC4C23)nc1 (stereo partly drawn) [Compound 138, N-(5-isopropylpyridin-2-yl)-3-((8aS,12S)-8a-methyl-1,2,6b,7,8,8a,10,12,12a,12b-decahydronaphtho[2′,1′:4,5]indeno[1,2-c]pyrazol-12-yl)propanamide] | 94 | 18 | 0.85
6 | COc1ccc(NC(=O)CC[C@@H]2c3c[nH]nc3[C@@]3(C)CCC4c5ccccc5CCC4C23)nc1 (stereo partly drawn) [Compound 141, N-(5-methoxypyridin-2-yl)-3-((8aS,12S)-8a-methyl-1,2,6b,7,8,8a,10,12,12a,12b-decahydronaphtho[2′,1′:4,5]indeno[1,2-c]pyrazol-12-yl)propanamide] | 93 | 35 | 0.75
7 | COc1ccc(NC(=O)CC[C@@H]2c3c[nH]nc3[C@@]3(C)CCC4c5ccccc5CCC4C23)nn1 (stereo partly drawn) [Compound 156, N-(6-methoxypyridazin-3-yl)-3-((8aS,12S)-8a-methyl-1,2,6b,7,8,8a,10,12,12a,12b-decahydronaphtho[2′,1′:4,5]indeno[1,2-c]pyrazol-12-yl)propanamide] | 81 | 56 | 1.55
8 | C[C@]12CCC3c4ccccc4CCC3C1[C@H](CCC(=O)Nc1ccc(F)cn1)c1c[nH]nc12 (stereo partly drawn) [Compound 159, N-(5-fluoropyridin-2-yl)-3-((8aS,12S)-8a-methyl-1,2,6b,7,8,8a,10,12,12a,12b-decahydronaphtho[2′,1′:4,5]indeno[1,2-c]pyrazol-12-yl)propanamide] | 90 | 23 | 1.28
9 | C[C@]12CCC3c4ccccc4CCC3C1[C@H](CCC(=O)Nc1cc(F)ccn1)c1c[nH]nc12 (stereo partly drawn) [Compound 162, N-(4-fluoropyridin-2-yl)-3-((8aS,12S)-8a-methyl-1,2,6b,7,8,8a,10,12,12a,12b-decahydronaphtho[2′,1′:4,5]indeno[1,2-c]pyrazol-12-yl)propanamide] | 91 | 44 | 1.38
10 | COc1ccnc(NC(=O)CC[C@@H]2c3c[nH]nc3[C@@]3(C)CCC4c5ccccc5CCC4C23)c1 (stereo partly drawn) [Compound 165, N-(4-methoxypyridin-2-yl)-3-((8aS,12S)-8a-methyl-1,2,6b,7,8,8a,10,12,12a,12b-decahydronaphtho[2′1′:4,5]indeno[1,2-c]pyrazol-12-yl)propanamide] | 85 | 34 | 0.733
11 | Cc1ccnc(NC(=O)CC[C@@H]2c3c[nH]nc3[C@@]3(C)CCC4c5ccccc5CCC4C23)c1 (stereo partly drawn) [Compound 168, 3-((8aS,12S)-8a-methyl-1,2,6b,7,8,8a,10,12,12a,12b-decahydronaphtho[2′,1′:4,5]indeno[1,2-c]pyrazol-12-yl)-N-(4-methylpyridin-2-yl)propanamide] | 90 | 58 | 1.13
12 | C[C@]12CCC3c4ccccc4CCC3C1[C@H](CCC(=O)Nc1ccccn1)c1c[nH]nc12 (stereo partly drawn) [Compound 171, 3-((8aS,12S)-8a-methyl-1,2,6b,7,8,8a,10,12,12a,12b-decahydronaphtho[2′,1′:4,5]indeno[1,2-c]pyrazol-12-yl)-N-(pyridin-2-yl)propanamide] | 89 | 27 | 1.22
13 | C[C@]12CCC3c4ccccc4CCC3C1[C@H](CCC(=O)Nc1cnccn1)c1c[nH]nc12 (stereo partly drawn) [Compound 189, 3-((8aS,12S)-8a-methyl-1,2,6b,7,8,8a,10,12,12a,12b-decahydronaphtho[2′,1′:4,5]indeno[1,2-c]pyrazol-12-yl)-N-(pyrazin-2-yl)propanamide] | 90 | 46 | 0.5
14 | C[C@]12CCC3c4cccc(F)c4CCC3C1[C@H](CCC(=O)NC1CCCCC1)c1c[nH]nc12 (stereo partly drawn) [Compound 207, N-cyclohexyl-3-((8aS,12S)-3-fluoro-8a-methyl-1,2,6b,7,8,8a,10,12,12a,12b-decahydronaphtho[2′,1′:4,5]indeno[1,2-c]pyrazol-12-yl)propanamide] | 95 | 14 | 0.3
15 | C[C@]12CCC3c4cccc(F)c4CCC3C1[C@H](CCC(=O)N1CCCC1)c1c[nH]nc12 (stereo partly drawn) [Compound 210, 3-((8aS,12S)-3-fluoro-8a-methyl-1,2,6b,7,8,8a,10,12,12a,12b-decahydronaphtho[2′,1′:4,5]indeno[1,2-c]pyrazol-12-yl)-1-(pyrrolidin-1-yl)propan-1-one] | 94 | 19 | 0.183
16 | CCN(CC)C(=O)CC[C@@H]1c2c[nH]nc2[C@@]2(C)CCC3c4cccc(F)c4CCC3C12 (stereo partly drawn) [Compound 216, N,N-diethyl-3-((8aS,12S)-3-fluoro-8a-methyl-1,2,6b,7,8,8a,10,12,12a,12b-decahydronaphtho[2′,1′:4,5]indeno[1,2-c]pyrazol-12-yl)propanamide] | 93 | 10 | 0.133
